Patent publication US8952024B2, “Herbicidal pyrimidone derivatives” (E I du Pont de Nemours and Company, priority 2009, dated 2015)

How the values were obtained:
Type in all cases: in vivo
[1] = tested on: morningglory (Ipomoea spp.); assay: Test A pre-/postemergence plant response
How it was run: (§1)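 Seeds planted in loam soil/sand blend; test chemicals in non-phytotoxic solvent mixture with surfactant applied as directed soil spray preemergence and, concurrently, postemergence to plants 2–10 cm tall at one- to two-leaf stage. Greenhouse ~10 days; visual injury vs untreated controls, 0 (no effect) to 100 (complete control).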

[2] = tested on: wheat (Triticum aestivum); assay: Test A pre-/postemergence plant response
How it was run: as §1

[3] = tested on: corn (Zea mays); assay: Test A pre-/postemergence plant response
How it was run: as §1

[4] = tested on: large crabgrass (Digitaria sanguinalis); assay: Test A pre-/postemergence plant response
How it was run: as §1

[5] = tested on: barnyardgrass (Echinochloa crus-galli); assay: Test A pre-/postemergence plant response
How it was run: as §1

[6] = tested on: giant foxtail (Setaria faberii); assay: Test A pre-/postemergence plant response
How it was run: as §1

[7] = tested on: pigweed (Amaranthus retroflexus); assay: Test A pre-/postemergence plant response
How it was run: as §1

[8] = tested on: velvetleaf (Abutilon theophrasti); assay: Test A pre-/postemergence plant response
How it was run: as §1

[9] = tested on: rice (Oryza sativa); assay: Test B flooded paddy test; settings: for Plant response rating, Flood, Rice: 250 g ai/ha, flooded paddy test, visual rating on 0 to 100 scale (0 no effect, 100 complete control) after 13 to 15 days; for Plant response rating, Rice: Flood (flooded paddy test), 13 to 15 days; for Rice plant response rating: Flood, 31 g ai/ha, scale 0 to 100 (0 no effect, 100 complete control)
How it was run: (§2)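 Greenhouse-held for 13 to 15 days, treated pots were compared visually with controls and scored 0–100 (0, no effect). Treatment had been made into paddy water kept at 3 cm above the soil, with plants at the 2-leaf stage.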

[10] = tested on: ducksalad (Heteranthera limosa); assay: Test B flooded paddy test; settings: for Plant response rating, Flood, Ducksalad: 250 g ai/ha, flooded paddy test, visual rating on 0 to 100 scale (0 no effect, 100 complete control) after 13 to 15 days; for Plant response rating, Ducksalad: Flood (flooded paddy test), 13 to 15 days
How it was run: as §2

[11] = tested on: windgrass (Apera spica-venti); assay: Test B postemergence plant response; settings: Postemergence
How it was run: (§3)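 Plants at the 1- to 4-leaf stage (2 to 18 cm tall), grown in pots of peat moss/vermiculite medium with wetting agent and starter nutrients, received postemergence applications of test chemicals. After 13 to 15 days in a greenhouse, injury was rated visually against untreated controls on a 0 (no effect) to 100 (complete control) scale.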

[12] = tested on: canarygrass (Phalaris minor); assay: Test B postemergence plant response; settings: Postemergence
How it was run: as §3

[13] = tested on: chickweed (Stellaria media); assay: Test B postemergence plant response; settings: Postemergence
How it was run: as §3

[14] = Postemergence, 125 g ai/ha, 0 to 100 scale where 0 is no effect and 100 is complete control
[15] = Postemergence, 500 g ai/ha, 0 to 100 scale, 0 = no effect, 100 = complete control, approx. ten days
[16] = Preemergence, 125 g ai/ha, 0 to 100 scale, 0 = no effect, 100 = complete control
[17] = Preemergence, 500 g ai/ha, visual injury, 0 to 100 scale (0 no effect, 100 complete control), approx. ten days
[18] = Preemergence, 500 g ai/ha, 0 to 100 scale, 0 = no effect, 100 = complete control
[19] = 62 g ai/ha, scale of 0 to 100 where 0 is no effect and 100 is complete control
[20] = 125 g ai/ha, scale 0 to 100, 0 is no effect, 100 is complete control
[21] = 31 g ai/ha, 0 to 100 scale (0 no effect, 100 complete control)
[22] = 125 g ai/ha, scale 0 to 100 (0 no effect, 100 complete control)
[23] = 250 g ai/ha, scale 0 to 100 (0 no effect, 100 complete control), 13 to 15 days
[24] = Postemergence, 500 g ai/ha, visual injury, 0 to 100 scale (0 no effect, 100 complete control), approx. ten days
[25] = 62 g ai/ha, scale 0 to 100 (0 no effect, 100 complete control)

CCCn1c(-c2cc(C)cc(C)c2)ncc(C(=O)C2=C(O)CCCC2=O)c1=O [Compound 156]
Plant response rating, Morningglory [1, 14]: 100 | Plant response rating, Morningglory [1, 15]: 100 | Plant response rating, Morningglory [1, 16]: 0 | Plant response rating, Morningglory [1, 17]: 0 | Plant response rating, Wheat [2, 14]: 0 | Plant response rating, Wheat [2, 15]: 20 | Plant response rating, Wheat [2, 16]: 0 | Plant response rating, Wheat [2, 18]: 0 | Plant response rating, Corn [3, 14]: 20 | Plant response rating, Corn [3, 15]: 20 | Plant response rating, Corn [3, 16]: 0 | Plant response rating, Corn [3, 17]: 20 | Plant response rating, Crabgrass, Large [4, 14]: 70 | Plant response rating, Crabgrass, Large [4, 15]: 80 | Plant response rating, Crabgrass, Large [4, 16]: 10 | Plant response rating, Crabgrass, Large [4, 17]: 50 | Plant response rating, Barnyardgrass [5, 14]: 90 | Plant response rating, Barnyardgrass [5, 15]: 90 | Plant response rating, Barnyardgrass [5, 16]: 0 | Plant response rating, Barnyardgrass [5, 17]: 80 | Plant response rating, Foxtail, Giant [6, 14]: 80 | Plant response rating, Foxtail, Giant [6, 15]: 90 | Plant response rating, Foxtail, Giant [6, 16]: 10 | Plant response rating, Foxtail, Giant [6, 17]: 50 | Plant response rating, Pigweed [7, 14]: 100 | Plant response rating, Pigweed [7, 15]: 100 | Plant response rating, Pigweed [7, 16]: 70 | Plant response rating, Pigweed [7, 17]: 80 | Plant response rating, Velvetleaf [8, 14]: 100 | Plant response rating, Velvetleaf [8, 15]: 100 | Plant response rating, Velvetleaf [8, 16]: 0 | Plant response rating, Velvetleaf [8, 18]: 50 | Plant response rating, Flood, Rice [9]: 35 | Plant response rating, Rice [9, 19]: 30 | Plant response rating, Rice [9, 20]: 20 | Rice plant response rating [9]: 30 | Plant response rating, Flood, Ducksalad [10]: 100 | Plant response rating, Ducksalad [10, 19]: 65 | Plant response rating, Ducksalad [10, 20]: 80 | Ducksalad plant response rating ([10]; Flood, 31 g ai/ha, scale 0 to 100 (0 no effect, 100 complete control)): 0 | Plant response rating, Windgrass [11, 21]: 40 | Plant response rating, Windgrass [11, 22]: 55 | Plant response rating, Windgrass [11, 23]: 60 | Plant response rating, Canarygrass [12, 21]: 15 | Plant response rating, Canarygrass [12, 22]: 40 | Plant response rating, Canarygrass [12, 23]: 60 | Plant response rating, Chickweed [13, 21]: 80 | Plant response rating, Chickweed [13, 22]: 100 | Plant response rating, Chickweed [13, 23]: 100

CCCn1c(-c2ccsc2)ncc(C(=O)C2=C(O)C3CCC(C3)C2=O)c1=O (centres unmarked) [Compound 227]
Plant response rating, Morningglory [1, 14]: 100 | Morningglory plant response rating [1, 24]: 100 | Plant response rating, Morningglory [1, 16]: 50 | Plant response rating, Morningglory [1, 18]: 80 | Plant response rating, Wheat [2, 14]: 0 | Wheat plant response rating [2, 24]: 0 | Plant response rating, Wheat [2, 16]: 0 | Plant response rating, Wheat [2, 18]: 10 | Plant response rating, Corn [3, 14]: 10 | Corn plant response rating [3, 24]: 60 | Plant response rating, Corn [3, 16]: 0 | Plant response rating, Corn [3, 18]: 10 | Plant response rating, Crabgrass, Large [4, 14]: 90 | Crabgrass, Large plant response rating [4, 24]: 100 | Plant response rating, Crabgrass, Large [4, 16]: 90 | Plant response rating, Crabgrass, Large [4, 18]: 100 | Plant response rating, Barnyardgrass [5, 14]: 90 | Barnyardgrass plant response rating [5, 24]: 90 | Plant response rating, Barnyardgrass [5, 16]: 50 | Plant response rating, Barnyardgrass [5, 18]: 100 | Plant response rating, Foxtail, Giant [6, 14]: 90 | Foxtail, Giant plant response rating [6, 24]: 90 | Plant response rating, Foxtail, Giant [6, 16]: 40 | Plant response rating, Foxtail, Giant [6, 18]: 80 | Plant response rating, Pigweed [7, 14]: 100 | Pigweed plant response rating [7, 24]: 100 | Plant response rating, Pigweed [7, 16]: 80 | Plant response rating, Pigweed [7, 18]: 100 | Plant response rating, Velvetleaf [8, 14]: 100 | Velvetleaf plant response rating [8, 24]: 100 | Plant response rating, Velvetleaf [8, 16]: 90 | Plant response rating, Velvetleaf [8, 18]: 100 | Plant response rating, Flood, Rice [9]: 55 | Plant response rating, Rice [9, 19]: 30 | Plant response rating, Rice [9, 20]: 45 | Rice plant response rating [9]: 20 | Plant response rating, Flood, Ducksalad [10]: 80 | Plant response rating, Ducksalad [10, 20]: 75 | Plant response rating, Windgrass [11, 21]: 0 | Plant response rating, Windgrass [11, 25]: 30 | Plant response rating, Windgrass [11, 23]: 50 | Plant response rating, Canarygrass [12, 21]: 0 | Plant response rating, Canarygrass [12, 25]: 0 | Plant response rating, Canarygrass [12, 22]: 5 | Plant response rating, Canarygrass [12, 23]: 10 | Plant response rating, Chickweed [13, 21]: 65 | Plant response rating, Chickweed [13, 25]: 75 | Plant response rating, Chickweed [13, 22]: 80 | Plant response rating, Chickweed [13, 23]: 90
